According to US20090062291A1, “PHOSPHODIESTERASE 10 INHIBITORS” (priority 2007, published 2009):

Biological target: T1, mPDE10A7 (Mus musculus, UniProt Q8CA95)
T1 sequence (Q8CA95 446-763 limits assumed): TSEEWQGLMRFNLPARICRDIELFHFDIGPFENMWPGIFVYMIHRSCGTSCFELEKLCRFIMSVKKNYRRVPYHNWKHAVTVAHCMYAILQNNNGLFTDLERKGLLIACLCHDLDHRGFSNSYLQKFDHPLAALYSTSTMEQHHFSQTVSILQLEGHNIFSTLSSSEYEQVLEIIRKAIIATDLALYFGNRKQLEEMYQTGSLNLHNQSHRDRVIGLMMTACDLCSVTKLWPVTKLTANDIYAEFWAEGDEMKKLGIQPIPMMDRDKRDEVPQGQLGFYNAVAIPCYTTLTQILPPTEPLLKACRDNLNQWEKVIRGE
Assay: mPDE10A7 enzyme inhibition (IMAP fluorescence polarization)
Type: biochemical
Details: fluorescein labeled cAMP or cGMP substrate, 30 min at room temperature
Method: Enzyme Activity. To analyze the enzyme activity, 5 μL of serial diluted mPDE10A7 containing lysate were incubated with equal volumes of diluted (100-fold) fluorescein labeled cAMP or cGMP for 30 min in MDC HE 96-well assay plates (Molecular Devices Corp., Sunnyvale Calif.) at room temperature. Both the enzyme and the substrates were diluted in the following assay buffer: Tris/HCl (pH 8.0) 50 mM, MgCl2 5 mM, 2-mercaptoethanol 4 mM, and BSA 0.33 mg/mL. After incubation, the reaction was stopped by adding 20 μL of diluted (400-fold) binding reagents and was incubated for an hour at room temperature. The plates were counted in an Analyst GT (Molecular Devices) for fluorescence polarization. An IMAP assay kit (Molecular Devices) was used to assess enzyme properties of mPDE10A7. Data were analyzed with SOFTMAX PRO software (Molecular Devices).
Enzyme Inhibition. To check the inhibition profile, 10 μL of serial diluted compounds were incubated with 30 μl of diluted PDE enzymes in a 96-well polystyrene assay plate for 30 min at room temperature. After incubation, 5 μL of the compound-enzyme mixture were aliquoted into a MDC HE black plate, mixed with 5 μL of 100-fold diluted fluorescein labeled substrates (cAMP or cGMP), and incubated for 30 min at room temperature. The reaction was stopped by adding 20 μL of diluted binding reagents and counted in an Analyst GT for fluorescence polarization. The data were analyzed with SoftMax Pro.
The IC50 values of a representative number of compounds of the invention in the above assay are as follows: […]

Compound | IC50
COc1cc2nncc(-c3cnc(NC(C)C)c(C#N)c3)c2cc1OC [Cpd 25] | 12 nM
COc1cc2nncc(-c3ccc(NC4CCc5cccc(OC)c5C4)nc3)c2cc1OC (stereo not shown) [Cpd 14] | 143 nM
COc1cc2nncc(-c3cnc(NC(C)C)c(C(N)=O)c3)c2cc1OC [Cpd 26] | 9 nM
COc1cc2nncc(-c3ccc(N[C@@H]4CCCc5ncccc54)nc3)c2cc1OC [Cpd 6] | 2.6 nM
COc1cc2nncc(-c3ccc(N[C@H]4CCCc5c(Br)cccc54)nc3)c2cc1OC [Cpd 11] | 258 nM
COc1cc2nncc(-c3cnc(N4CCC(O)(c5cccnc5)CC4)c(C4CC4)c3)c2cc1OC [Cpd 15] | 0.2 nM
COc1cc2nncc(-c3cnc(N4CCC(C(C)(C)O)CC4)c(C4CC4)c3)c2cc1OC [Cpd 1, 2-(1-(3-cyclopropyl-5-(6,7-dimethoxycinnolin-4-yl)pyridin-2-yl)piperidin-4-yl)propan-2-ol] | 1.1 nM
COc1cc2nncc(-c3ccc(NC4CCCc5ncccc54)nc3)c2cc1OC (stereo not shown) [Cpd 5] | 2.3 nM
COc1cc2nncc(-c3ccc(NC4CCOc5ccccc54)nc3)c2cc1OC (stereo not shown) [Cpd 8] | 12 nM
C=Cc1cc(-c2cnnc3cc(OC)c(OC)cc23)cnc1NC(C)C [Cpd 22] | 1.7 nM
